SMILES strings stand for the structures.

For the molecule `O=C1Nc2ccccc2SC[C@@H]1N1C(=O)c2ccccc2C1=O`, the melting point lay within 202 to 205 °C.
With `CC(=O)c1ccc(Cl)c(S(=O)(=O)Nc2ccccc2)c1` the figure was 142 °C; with `CCOC(=O)C(=O)CC(=O)c1cn(Cc2cccc(F)c2)c2ccccc2c1=O`, 174 to 175 °C.
The value for `O=C1CCC2=C1C(c1ccc([N+](=O)[O-])s1)C1=C(CCS1)N2` (stereo not drawn) was 251 to 254 °C.
The value for `Cc1ccc(N2CCN(c3c(C)c(C)c4c(c3C)CC(C)(C)O4)CC2)cc1Cl` was 146 to 148 °C.
Take `CCc1ccc2c(c1)C1(CCN(C(=O)Nc3cnc(-c4ccccc4)cn3)CC1)OC2=O`: the melting point lay within 176 to 178 °C.
`O=Cc1ccc(-c2ccccc2)c(Cl)c1`: the melting point is 70 to 72 °C.
With `CCCc1cc(Cl)c2oc(C(=O)OCC)c(C)c2c1O`, the melting point was in the range of 165 to 166 °C.
With `O=S(=O)(CCCCl)c1ccc(Cl)cc1` the figure was 69 to 72 °C; with `C[C@H]1Oc2ccc(Br)cc2C(=O)N2CCCC[C@@H]12` (racemic), 105 to 106 °C.
`COc1ccc(OCC(=O)c2ccccc2)c([N+](=O)[O-])c1` gave a melting point of 88 to 90 °C.
In turn, `CC(=O)NCc1ccc(C(=O)CBr)s1` returned a melting point of 129 to 131 °C.
The value for `O=C(C=Cc1ccc(C(F)(F)F)cc1)C=Cc1ccc(C(F)(F)F)cc1` was 148 to 150 °C; that for `Nc1nccnc1C(=O)N1CCCC1` was 100 to 105 °C; that for `CN1CCN(c2ncc3c(=O)c(C(=O)O)cn(Cc4ccccc4)c3n2)CC1` was 251 to 255 °C.
The molecule `O=C(Nc1nc(C(F)(F)F)co1)C1c2ccccc2Oc2ccc(Cl)cc21` (racemic) came in with a melting point of 235 °C.
`Oc1ccc(OC[C@@H](O)CNCCc2ccc(-n3c(-c4ccc(C5CCCCC5)cc4)nc4cccnc43)cc2)cc1` yielded a melting point of 100 to 102 °C.
The value for `COC(=O)C1Oc2ccc(Cl)cc2C(Cc2ccccc2)(c2ccccc2)O1` (stereo not drawn) was 110 °C; that for `COc1ccc2c(c1)-c1noc(N3CCCNCC3)c1CC2` was 106 to 109 °C; that for `CCCCc1oc2ccccc2c1C(=O)c1ccc(OCCN(CC)CC)c(I)c1` was 100 to 102 °C.
Take `COC(=O)C1=C(O)c2cc(Cl)ccc2S(=O)(=O)N1C`: the melting point stood at 201 °C.
With `CC(C)OC(=O)N[C@H]1CC[C@H](CCN2CCN(c3cccc(Cl)c3Cl)CC2)CC1` the figure was 128 to 131 °C; with `CCOCCn1c(SC2CCN(C(=O)c3cc(C)cc(C)c3)C(Cc3ccccc3)C2)nc2ccccc21` (stereo not drawn), 147 °C; with `Nc1ccc2ncc(Br)cc2c1`, 151 to 152 °C.
The molecule `C=COC(=O)n1c(S(=O)Cc2ccc(C)cn2)nc2cscc21` (stereo not drawn) yielded a melting point of 162 °C.
`CCCCCCCCCCCCCCCCCC(c1ccc(O)cc1)c1ccc(O)cc1` came in with a melting point of 88 to 90 °C.
With `COc1ccc(C(CC(=O)O)N2C(=O)c3ccccc3C2=O)cc1` (stereo not drawn) the figure was 160 to 164 °C; with `CCC1(CC)C(=O)N(C(C)(C)CO)CC(C)(C)N1OC(C)(C)C#N`, 58 to 66 °C; with `CCCCCCCCCCCCCC(=O)N[C@H](C(=O)O)C(C)C`, 88 to 89 °C.
The value for `Cc1ccc(C(=O)NC(NC(=S)Nc2cccc([N+](=O)[O-])c2)C(C)(C)C)cc1` (stereo not drawn) was 181 to 182 °C; that for `N#Cc1nn(-c2c(Cl)cc(C(F)(F)F)cc2Cl)c(N)c1-c1ccc(SC(F)(F)F)s1` was 162 to 163 °C.
Take `ClC1(c2cccs2)CC1c1ccccc1` (stereo not drawn): the melting point fell in the range of 61 to 63 °C.
`CC(C)(C)OC(=O)c1c(N)sc2c1CCOC2CN1C(=O)c2ccccc2C1=O` (stereo not drawn) yielded a melting point of 227 to 230 °C.
Molecule `O=C1Nc2cccc(-c3cccc([N+](=O)[O-])c3)c2/C1=C/c1ccc[nH]1` displayed a melting point of 197 to 199 °C.
Molecule `COc1cccc(Cn2nc3oc(=O)cc(C)c3c2C)c1` came in with a melting point of 148 to 151 °C.
The molecule `CCOC(=O)c1c(OC)c2ccccc2c2nc3ccccc3nc12` had a melting point of 155 to 157 °C.
The value for `COC(=O)c1cc(CBr)cc(CBr)c1` was 64 to 70 °C.
With `CCOc1ccc(C(=O)N(C)C)c2c1C(=O)N(Cn1nnn(-c3ccccc3)c1=S)S2(=O)=O` the figure was 172 to 173 °C; with `O=[N+]([O-])c1c(NCCC23CCCN2CCC3)cnc2ccccc12`, 106 to 108 °C; with `COCCOc1ccc(COC(=O)NS(=O)(=O)NCC(C)C)c(Oc2ncc(C(F)(F)F)cc2Cl)c1`, 160 to 161 °C.
With `O=[N+]([O-])c1ccc(Oc2ccc(C(F)(F)F)cc2Cl)cc1SCl` the figure was 74 to 78 °C.
`CN1CCC(C2(O)c3cc(F)ccc3CCc3cccnc32)CC1` (stereo not drawn): the melting point lay in the range of 126 to 127 °C.
For `COc1cc(OC)c2c(=O)[nH]c(-c3cc(C)c(OCCN(C)C)c(C)c3)cc2c1`, the melting point was in the range of 261 to 263 °C.
In the case of `CCCc1nc(S)nn1-c1ccccc1`, the melting point was in the range of 142 to 143 °C.
With `COc1ccc(-c2nc3ccccc3o2)cc1` the figure was 99.5 to 102 °C; with `Cc1oc(-c2ccccc2)nc1COc1cc(COc2nn(C)cc2CC(=O)O)ccn1`, 126 to 127 °C.
`Cc1ccc(-c2ccc3c(c2)C=C(CN2CCC(NC(=O)C(F)(F)F)CC2)CCO3)cc1` had a melting point of 94 to 96 °C.
As to `Cc1cc(Oc2ccc(C(F)(F)F)cc2[N+](=O)[O-])nn1C(=O)OC(C)(C)C`, the melting point lay in the range of 68 to 70 °C.
Molecule `Cn1c(CO)nc2cccnc21` had a melting point of 229 to 231 °C.
The value for `COC(=O)c1sccc1COC(C)=O` was 42 to 43 °C.
With `COC(=O)c1cc(C(=O)NN2CCOCC2)c2cc(Cc3ccc(F)cc3)cnc2c1O` the figure was greater than 250 °C.
The value for `COc1cc2c(cc1-c1cccc(F)n1)-c1c(-c3cncs3)c3c(n1CC2)C(=O)N(C(C)(C)C)CCOC3` was 232 to 234 °C; that for `O=c1cc(Cl)nc2sc(SCc3ccccc3)nn12` was 138 to 140 °C.
Consider `Cc1cc2[nH]c(C)nc(N3CCOCC3)c-2n1`, for which the melting point was in the range of 242 to 243 °C.
`O=C(O)CCCC(O)c1ccc(Cl)cc1` (stereo not drawn) registered a melting point of 85 to 87 °C.
For `CN(C)CCCC(=O)N1CCC(C2c3ncc(Br)cc3CCc3cc(Cl)cc(Br)c32)CC1` (single isomer, unassigned; (+)), the melting point lay in the range of 78 to 80 °C.
The molecule `O=S(=O)(NCC1CCOCC1)c1ccc(Cl)cc1` registered a melting point of 118 to 119 °C.
The value for `CCCn1c(=O)n2c(C)nnc2c2c1ncn2C` was 192 to 194 °C; that for `Cc1ccccc1-c1nc2c(o1)C(=O)c1ccccc1C2=O` was 212 °C; that for `O=C(O)C1CCC(O)CC1` (stereo not drawn) was 110 to 130 °C.
Molecule `CNC(Cc1ccccc1N)c1ccncc1` (stereo not drawn) showed a melting point of 69 to 71 °C.
In turn, `COc1nc(N2CCN(C(=O)c3ccccc3C(F)(F)F)CC2)ccc1C(=O)NCCC1CC1` yielded a melting point of 49 to 51 °C.
`CC1(C)COC(CCCc2ccc(NC=NO)cc2)OC1` came in with a melting point of 138 to 140 °C.
With `CCCC(=O)c1cnc2ccc(COCc3ccccc3)cc2c1Cl` the figure was 85 to 86 °C; with `CCn1cc(C(=O)O)c(=O)cc1-c1cccc(Cl)c1`, 212 to 213 °C; with `CC(=O)c1cc2c(cc1NC(=O)c1sccc1S(=O)(=O)Nc1onc(C)c1Cl)OCO2`, 191 to 193 °C.
In turn, `FC(F)(F)c1cccc(Oc2ccnc(-n3ccc(C(F)(F)F)n3)n2)c1` registered a melting point of 72 to 73 °C.
In the case of `Nc1ccc([N+](=O)[O-])cc1S(=O)(=O)CCO`, the melting point was 175 °C.
Turning to `CCCCc1oc2ccccc2c1/C=N/OCCCOc1ccc(C(=O)O)c(NC(=O)c2ccc(C(C)(C)C)cc2)c1`, the melting point lay within 181 to 182 °C.
In turn, `CN(C)C(=O)CCCOC(=O)C(C)(OCc1ccc2ccccc2c1)C(F)(F)F` (stereo not drawn) came in with a melting point of 42 to 43 °C.
With `CC[C@@H]1C(=O)N(Cc2ccc(OC)cc2OC)[C@H]1CC(=O)O` (relative stereo) the figure was 131 °C; with `Cc1cc(O)c(S(=O)(=O)CCC(C)C)c(=O)o1`, 101 to 102 °C; with `CCOC(=O)CCN(Cc1ccc(OC)c(OC)c1)C(=O)CN(C)C(=O)Cc1ccc(NC(=O)Nc2ccccc2C)c(OC)c1`, 97 to 105 °C.
With `Cc1noc(NS(=O)(=O)c2ccccc2-c2ccc(-c3ncco3)cc2CN(C)C(=O)c2ccc(Cl)cc2Cl)c1C` the figure was 134 to 142 °C.
For the molecule `O=c1[nH]c2ccc3c(c2n(Cc2ccccc2)c1=O)CCCN3`, the melting point was greater than 300 °C.
The value for `N#CCCNC(=O)c1cccc(-c2cccc3cn(Cc4cccc(C(F)(F)F)c4)nc23)c1` was 174 to 175 °C.
The value for `Cc1ccc(S(=O)(=O)N(c2ccc(Cl)cc2C(=O)O)C(C)C)cc1` was 175 to 176 °C; that for `COC1=C(OC)C(=O)C(c2cc(C(C)(C)C)c(O)c(C(C)(C)C)c2)=C(C)C1=O` was 147 to 148 °C.
For the molecule `Cc1cc(-c2ccc(S(N)(=O)=O)cc2)n(-c2ccc(C)c(C)c2)c1`, the melting point lay in the range of 118 to 120 °C.
`CSCC(=O)c1cc(C(C)(C)C)c(O)c(C(C)(C)C)c1` came in with a melting point of 108 to 110 °C.
The value for `CC(C)CC(=O)N[C@H]1CC[C@H](CCN2CCN(c3nccc4c3CCO4)CC2)CC1` was 202 °C; that for `CNC(=O)CNC(=S)c1cccnc1` was 135 to 137 °C.
The molecule `O=C(O)c1csnc1-c1cccc(Cl)c1` registered a melting point of 215 to 216 °C.
In the case of `CCOC(=O)c1ncc2c(c1COC)c1c(Cc3ccccc3Cl)cccc1n2S(=O)(=O)c1ccc(C)cc1`, the melting point is 140 to 142 °C.
`CCCCc1nc(Cl)c(CC(=O)OCC)c(Cc2ccc(-c3ccccc3C#N)cc2)n1` gave a melting point of 66 °C.
Take `COc1ccc(OC)c(COc2ccc(S(=O)(=O)c3ccc(C)nc3Nc3c(C)cc(C)cc3C)cc2)c1`: the melting point fell in the range of 128 to 130 °C.
The value for `Cc1nc(C(C)(C)C)ccc1/C=C/C(=O)Nc1ccc2cc[nH]c2c1` was 182 °C; that for `Cc1cc2cc(CN3CCCCCC3)cnc2cc1NC(=O)c1ccc(-c2cc3ccccc3o2)cc1` was 207 °C.

The values above are taken from a melting point compilation (Tetko et al.; mined from patent text by program, amines drawn as free bases though some values may be those of a salt).
